Consider 24 molecules from patent US6348468B1, “Pyridazine compounds and compositions containing the same” (Kowa Co., Ltd., priority 1997, dated 2002).

Molecules are shown by their SMILES. pIC50: −log10 of the molar value.

For one data set, the system named is TNF-α Production. The data set is described as follows: Inhibitory activity against TNF-α production (LPS-stimulated RAW 264.7 cells, L-929 cytotoxicity readout). The data set is classed as cell-based. Conditions: Mus musculus, RAW264.7, lipopolysaccharide, culturing for 20 hours. The protocol: RAW 264.7 cells were cultured until confluence on DMEM culture with 10% fetal bovine serum (FBS), and were diluted to 1×10^6 cells/ml with the same medium and then inoculated at 100 μl/well to a 96-well plate. To the cells, a test sample which had been diluted with the same medium and lipopolysaccharide of 4 μg/ml was added at 50 μl/well, respectively. Subsequent to culturing for 20 hours, the cultures were collected.
Making use of cytotoxicity to L-929 cell strain, a TNF-α sensitive cell strain, the amount of TNF-α in each of the cultures was measured as will be described next. Described specifically, L-929 cells which had been cultured on MEM medium with 10% FBS added thereto were diluted to 2×10^5 cells/ml with the same medium, and were then inoculated at 100 μl/well to a 96-well plate. Subsequent to overnight incubation, standard TNF-α solutions, or 100-fold, 200-fold and 500-fold dilute solutions of the above-described culture of RAW 264.7 cells were added at 50 μl/well, and actinomycin D (4 μg/ml) was also added at 50 μl/well, followed by further culturing for 20 hours. Twenty hours later, each well was washed with PBS, viable cells were stained with crystal violet, and the inhibitory activity against TNF-α production was determined with reference to a standard curve of TNF-α.

The next data set has as its system IL-6 Production. The data set is described as follows: Inhibitory activity against IL-6 production (LPS-stimulated RAW 264.7 cells, ELISA). The class given is cell-based. Conditions: Mus musculus, RAW264.7, lipopolysaccharide, culturing for 20 hours. Here is the method: RAW 264.7 cells, which had been cultured until confluence on DMEM culture with 10% fetal bovine serum (FBS) added thereto, were diluted to 1×10^6 cells/ml with the same medium, and were then inoculated at 100 μl/well to a 96-well plate. A test sample which had been diluted with the same medium and lipopolysaccharide of 4 μg/ml in concentration was added at 50 μl/well, respectively. Subsequent to culturing for 20 hours, the cultures were collected.
The amount of IL-6 in each of the thus-obtained cultures of RAW 264.7 cells was measured by ELISA, and 5 the inhibitory activity against IL-6 production was determined with reference to a standard curve of IL-6.
A general note: An ELISA detects its analyte on a solid surface through an enzyme-linked reagent.

Data set [1] has as its system Interleukin-1β (IL-1β) Production. The data set is described as follows: Inhibitory activity against interleukin-1β production (LPS-stimulated HL-60 cells, ELISA). The class given is cell-based. Particulars: Homo sapiens, 72 h, lipopolysaccharide 10 μg/ml, culturing for 3 days. Here is the method:
HL-60 cells were cultured for 4 days until confluence on RPMI 1640 medium with 10% fetal bovine serum (FBS) added thereto. The HL-60 cells were centrifuged. The supernatant was discarded, and the cells were then suspended at 1×10^6 cells/ml on RPMI 1640 medium with 3% FBS, and lipopolysaccharide was added to give a final concentration of 10 μg/ml. The culture was inoculated at 1 ml/well to a 24-well plate. A test sample was added at 1 μl/well, followed by culturing for 3 days. Three days later, the amount of interleukin-1β in each of the cultures was measured by ELISA. Its IC50 value was determined by a comparison in yield with a control to which no test sample was added.

The test system of data set [2] is collagen-induced arthritis models of mice. The data set is described as follows: Therapeutic effects for arthritis in collagen-induced arthritis models of mice. The class given is in vivo. Particulars: P.O.; for Percent inhibition to swelling: determined by quantitation of swelling; for Percent inhibition to arthritis development: determined depending on the existence or non-existence of swelling. Here is the method:
In accordance with the disclosure of Nature 283, 666-668, 1980, therapeutic effects for arthritis were evaluated by using collagen-induced arthritis models of mice.

A further data set has as its system rats. The data set is described as follows: Maximum no-effect level, oral once a day for 2 weeks, rats. The data set is classed as in vivo. Particulars: orally once a day for 2 weeks.
The next data set deals with dogs. The data set is described as follows: Maximum no-effect level, oral once a day for 2 weeks, dogs. The data set is classed as in vivo. Conditions: orally once a day for 2 weeks.

Regarding `COc1ccc(-c2cc(=O)n(CCCl)nc2-c2ccc(OC)cc2)cc1` [Comp. Comp'd 1], the pIC50 – broadly, the IC50 on a negative log10 scale, so that one unit is a factor of ten – with TNF-α Production was 5.00; in the data set on IL-6 Production, 4.19; in data set [1] it was 4.54. Take `COc1ccc(-c2cc(=O)n(CCO)nc2-c2ccc(OC)cc2)cc1` [Comp. Comp'd 2]: the pIC50 is 4.59 in the data set with TNF-α Production, 4.36 in the data set with IL-6 Production and 4.34 in data set [1]. Regarding `COc1ccc(-c2cc(=O)n(Cc3cccnc3)nc2-c2ccc(OC)cc2)cc1` [Example 44, 5,6-bis(4-methoxyphenyl)-2-(3-pyridylmethyl)-2H-pyridazin-3-one], the melting point (commonly the temperature of the solid-liquid transition) fell in the range of 167.4 to 168.4 °C. This molecule also gave a pIC50 in data set [1] of 6.37.

Consider `CSc1ccc(-c2nn(Cc3ccccc3)c(=O)cc2-c2ccc(Cl)cc2)cc1` [Example 51, 2-benzyl-5-(4-chlorophenyl)-6-[4-(methylthio)phenyl]-2H-pyridazin-3-one], for which, in data set [2] (1 mg/kg), the “Percent inhibition to swelling” value was 33.3% and the “Percent inhibition to arthritis development” value is recorded as 40%. Further, in data set [2] (3 mg/kg), the “Percent inhibition to swelling” value is listed as 77.4% and the “Percent inhibition to arthritis development” value amounted to 50%. In data set [1], this molecule had a pIC50 of 6.54. Further, in the data set on rats, the “Maximum no-effect level (rat)” value turned out to be 100 mg/kg and the “toxicity at the dose level of Table 4 (in words)” value is recorded as “no toxicity was observed at all”. In addition, in the data set on dogs, the “Maximum no-effect level (dog)” value was 30 mg/kg and the “toxicity at the dose level of Table 4 (in words)” value is “no toxicity was observed at all”. With `CSc1ccc(-c2nn(Cc3cccnc3)c(=O)cc2-c2ccc(Cl)cc2)cc1` [Example 55, 5-(4-chlorophenyl)-6-[4-(methylthio)phenyl]-2-(3-pyridylmethyl)-2H-pyridazin-3-one], the pIC50 in data set [1] is 6.60.

Consider `CSc1ccc(-c2nn(Cc3ccccc3)c(=O)cc2-c2ccc(F)cc2)cc1` [Example 61, 5-(4-fluorophenyl)-6-[4-(methylthio)phenyl]-2-benzyl-2H-pyridazin-3-one], for which the melting point was 140.6 to 140.7 °C. Further, in data set [1], the pIC50 is 6.68. In the same order, the values of `CSc1ccc(-c2nn(Cc3ccc(Cl)cc3Cl)c(=O)cc2-c2ccc(F)cc2)cc1` [Example 65, 5-(4-fluorophenyl)-6-[4-(methylthio)phenyl]-2-(2,4-dichlorobenzyl)-2H-pyridazin-3-one] are 139.3 to 139.5 °C and 6.41. For the molecule `COc1ccc(-c2nn(Cc3ccc(Cl)cc3)c(=O)cc2-c2ccncc2)cc1` [Example 78, 2-(4-chlorobenzyl)-6-(4-methoxyphenyl)-5-(4-pyridyl)-2H-pyridazin-3-one], the pIC50 in data set [1] is 6.41. In turn, `COc1ccc(-c2cc(=S)n(Cc3ccccc3)nc2-c2ccc(OC)cc2)cc1` [Example 123, 5,6-bis(4-methoxyphenyl)-2-benzyl-2H-pyridazine-3-thione] had a melting point of 134.7 to 148.6 °C. Further, the negative-log IC50 (pIC50) in data set [1] is 6.72. In turn, `COc1ccc(-c2cc(=S)n(Cc3ccc(F)cc3F)nc2-c2ccc(OC)cc2)cc1` [Example 126, 5,6-bis(4-methoxyphenyl)-2-(2,4-difluorobenzyl)-2H-pyridazine-3-thione] had a pIC50 in data set [1] of 6.82. As to `COc1ccc(-c2cc(=S)n(Cc3cccnc3)nc2-c2ccc(OC)cc2)cc1` [Example 128, 5,6-bis(4-methoxyphenyl)-2-(3-pyridylmethyl)-2H-pyridazine-3-thione], the pIC50 in data set [1] was 6.51.

In turn, `CSc1ccc(-c2nn(Cc3ccc(Cl)cc3Cl)c(=S)cc2-c2ccc(Cl)cc2)cc1` [Example 134, 5-(4-chlorophenyl)-2-(2,4-dichlorobenzyl)-6-[4-(methylthio)phenyl]-2H-pyridazine-3-thione] registered a melting point of 183.2 to 183.4 °C. The pIC50 in data set [1] was 6.70. Regarding `CSc1ccc(-c2nn(Cc3cccnc3)c(=S)cc2-c2ccc(Cl)cc2)cc1` [Example 135, 5-(4-chlorophenyl)-6-[4-(methylthio)phenyl]-2-(3-pyridylmethyl)-2H-pyridazine-3-thione], the pIC50 in data set [1] was 6.41. In turn, `CSc1ccc(-c2nn(CC3CC3)c(=S)cc2-c2ccc(F)cc2)cc1` [Example 137, 2-cyclopropylmethyl-5-(4-fluorophenyl)-6-[4-(methylthio)phenyl]-2H-pyridazine-3-thione] returned a melting point of 135.7 to 135.8 °C. Further, in data set [1], the pIC50 was 6.57.

In the case of `COc1ccc(-c2nn(Cc3ccc(Cl)cc3)c(=S)cc2-c2ccncc2)cc1` [Example 142, 2-(4-chlorobenzyl)-6-(4-methoxyphenyl)-5-(4-pyridyl)-2H-pyridazine-3-thione], in data set [1], the pIC50 is 6.74. Consider `CCn1nc(-c2ccc(OC)c(F)c2)c(-c2ccc(OC)c(F)c2)cc1=O` [Example 160, 5,6-bis(3-fluoro-4-methoxyphenyl)-2-ethyl-2H-pyridazin-3-one], for which the melting point was 177.8 to 178.5 °C. In data set [1], this molecule had a pIC50 of 6.31. Regarding `CCn1nc(-c2ccc(OC)cc2)c(-c2ccc(OC)cc2)cc1=O` [Example 163, 5,6-bis(4-methoxyphenyl)-2-ethyl-2H-pyridazin-3-one], the pIC50 in the data set on TNF-α Production is 5.92; in the data set with IL-6 Production, 6.40; in data set [1], 6.21. Molecule `COc1ccc(-c2cc(=O)n(C)nc2-c2ccc(OC)cc2)cc1` [Example 164, 5,6-bis(4-methoxyphenyl)-2-methyl-2H-pyridazin-3-one] had a pIC50 in data set [1] of 5.95.

As to `COc1ccc(-c2cc(=O)n(C(C)C)nc2-c2ccc(OC)cc2)cc1` [Example 165, 5,6-bis(4-methoxyphenyl)-2-isopropyl-2H-pyridazin-3-one], the pIC50 in data set [1] is 5.88.

`COc1ccc(-c2cc(=O)n(C3CC3)nc2-c2ccc(OC)cc2)cc1` [Example 168, 5,6-bis(4-methoxyphenyl)-2-cyclopropyl-2H-pyridazin-3-one] had a pIC50 in data set [1] of 5.10. Same read-out and setting: then `COc1ccc(-c2cc(=O)n(CC3CC3)nc2-c2ccc(OC)cc2)cc1` [Example 169, 5,6-bis(4-methoxyphenyl)-2-cyclopropylmethyl-2H-pyridazin-3-one], with 5.74. Still for that read-out and setting: then `COc1ccc(-c2cc(=S)n(CC3CC3)nc2-c2ccc(OC)cc2)cc1` [Example 170, 5,6-bis(4-methoxyphenyl)-2-cyclopropylmethyl-2H-pyridazine-3-thione], with 5.92. In turn, `COc1ccc(-c2cc(=O)n(C3CCCC3)nc2-c2ccc(OC)cc2)cc1` [Example 171, 5,6-bis(4-methoxyphenyl)-2-cyclopentyl-2H-pyridazin-3-one] came in with a melting point of 141.2 to 142.2 °C. The molecule also had a pIC50 in data set [1] of 6.29. In turn, `COc1ccc(-c2cc(=O)n(CC3CCCC3)nc2-c2ccc(OC)cc2)cc1` [Example 172, 5,6-bis(4-methoxyphenyl)-2-cyclopentylmethyl-2H-pyridazin-3-one] showed a pIC50 in data set [1] of 6.96.
